By inhibition is commonly meant the change of the read-out against control, counted positive when it falls. For orientation: inhibition in vivo means the relative decrease from the control value, in per cent.

inhibition, Activity and inhibition in vivo data for 1 compound are collected here from ChEMBL document CHEMBL3580594, “Synthesis and biological evaluation of 4-substituted fluoronucleoside analogs for the treatment of hepatitis B virus infection” (J Med Chem, 2015).

One data set relates to Hepatitis B virus. The data set is described as follows: Antiviral activity against Hepatitis B virus in HepG2.2.15 cells assessed as inhibition of extracellular viral DNA replication at 5 uM after 9 days by real-time FQ-PCR analysis. The following applies: HepG2 2.2.15, 216 h. The class given is functional.
In another data set the test system is Mus musculus. The data set is described as follows: Acute toxicity in KM mouse assessed as mortality at 3 g/kg, iv suspended in 0.5% CMC/Na solution after 14 days. Type of data set: organism-based. The settings on record: in vivo, 3000 mg/kg, 336 h.
The test system of the next data set is Duck hepatitis B virus. Kind of data set: Antiviral activity against duck Hepatitis B virus infected in duck assessed as inhibition of viral DNA replication in liver at 0.04 mg/kg/day, po measured after 3 days of treatment withdrawal. Type of data set: functional. The following applies: 72 h.

Regarding `[N-]=[N+]=N[C@]1(CO)O[C@@H](n2ccc(NC3CC3)nc2=O)[C@@H](F)[C@@H]1O`, the inhibition at 5 µM with Hepatitis B virus was 87.6%. Besides, the Activity entry with Mus musculus is given as “Non-toxic”. In addition, the inhibition in vivo at 0.04 mg/kg/day in the data set with Duck hepatitis B virus is 58.8%.
